Experimental data from US4599325A, “Substituted tyrosyl alanine dipeptide amides” (G. D. Searle & Co., priority 1985, dated 1986).
Structures can show the parent of a compound that is named as a salt.

Legend:
mice [1] = experiment: Combined tail flick and hot plate tests: hot plate; format: in vivo, mouse; settings: for ED50: Mus musculus, combined tail flick/hot plate; for activity in hot plate test of combined tests: oral and subcutaneous, prior art at doses as great as 100 mg/kg p.o. and 50 mg/kg s.c.
Method: (§1) Male albino inbred mice supplied by Charles River (CD-1/HAM/1LR) weighing between 20 and 30 grams were used. Analgesia was first measured using the tail flick test in which a high intensity beam of light was focused on the blackened tail. The interval of time between onset of the light and reflex removal of the tail was defined as the tail flick latency. The average of two successive determinations was recorded. Following tail flick determination, the animals were immediately placed on a 55° C. copper hot plate to which they were restricted by an inverted 600 ml glass beaker. Hot plate latency was defined as the interval between placement on the hot plate and a behavioral response of either a jump or a hindpaw lick. One determination was recorded. Mice not responding within 4.0 seconds on the tail flick and 20.0 seconds on the hot plate were discarded from the study. The tail flick test and the hot plate test were stopped after 12.0 and 40 seconds, respectively, had elapsed to prevent tissue damage. After determination of pre-injection baseline latencies, the test compound was dissolved in distilled water and administered either orally or subcutaneously (0.1 ml/10 gram body weight). Tail flick and hot plate latencies were measured 10, 30, 60 and 90 minutes after injection. One-way analyses of variance were used to detect any significant increase in tail flick and hot plate latencies (indicative of analgesia) as compared to latencies prior to drug adminstration, as well as to establish the dose-dependence of any effect. A linear regression method (least squares) was used to determine the line of best fit. The ED50 dose was determined to be that dose of test compound that produced one-half the maximum measurable increase in latency. This corresponded to a post-drug tail flick latency of 7.5 seconds and hot plate latency of 25 seconds. G. Keppel: Design and analysis: a researcher's handbook, New Jersey, Prentice-Hall, 1973.

[2] = test system: spontaneous hypertensive rats (SHR); experiment: Hypertensive test in spontaneous hypertensive rats (SHR); format: in vivo, rat; parameters: key to Antihypertensive Properties, Result: Active: Any compound that resulted in a decrease in arterial blood pressure of 20 mm Hg or greater was considered active; settings: for Antihypertensive Properties, Result: Table 3, 10 mg/kg intravenously, one unanesthetized male SHR
Method: A compound's ability to act as an antihypertensive agent was determined using spontaneous hypertensive rats (SHR). Male SHR were maintained in-house for 1 or more weeks before use and were between 11 and 16 weeks old. The test compound was administered intravenously and the initial mean arterial blood pressure was measured directly via an arterial catheter implanted immediately before administration of the compound. Blood pressure readings were made 5, 10 and 15 minutes after administration of the compound. […] Statistical comparisons were made using the unpaired student's test.
The following compounds of the invention were evaluated for their antihypertensive properties using the spontaneous hypertensive rat (SHR). […] The SHR test was essentially that described earlier. Each compound listed in Table 3, was administered intravenously to one unanesthetized, male, spontaneously hypertensive rat; the dosage was 10 mg/kg.

mice [3] = experiment: Writhing assay (phenylbenzoquinone); format: in vivo, mouse; settings: for ED50: Mus musculus; for Writhing Mouse Oral (ED50) / Writhing Mouse Subc. (ED50): Table 1; for Writhing Mouse Subc. (ED50): subcutaneous
Method: Male Charles River albino mice (CD-1/HAM/1LR) weighing between 20 and 30 grams were used. Thirty minutes after subcutaneous or intragastric administration of the test compound (0.1 ml/10 gram body weight), 0.025% (w/v) phenylbenzoquinone was injected intraperitoneally (0.1 ml/10 gram body weight). Five minutes later, each mouse was placed in a large glass beaker and the number of writhes that occurred in the subsequent ten minutes is counted. A writhe consisted of dorsoflexion of the back, extension of the hindlimbs, and strong contraction of the abdominal musculature. The test compound was considered to have produced analgesia in a mouse if the number of writhes elicited by phenylbenzoquinone was equal to or less than one-half the median number of writhes recorded for the saline-treated group that day. The results were expressed as the number of mice (out of a possible ten) in which the test compound produced analgesia. The test compound was rated active if writhing was inhibited (as described) in 5 of 10 mice.
The receptor binding and biological properties of the following compounds of this invention are illustrated in Tables 1 and 2 utilizing the previously described opiate binding, hot plate, tail flick, writhing assay, cholera test or hypertensive test. The standard screening dose for the hot plate test of Table 1 was 10 mg/kg i.v. and for the writhing assay was 10 mg/kg s.c. and p.o.

mice [4] = experiment: Combined tail flick and hot plate tests: tail flick; format: in vivo, mouse; settings: for ED50: Mus musculus, combined tail flick/hot plate; for activity in tail flick test: oral and subcutaneous, prior art at doses as great as 100 mg/kg p.o. and 50 mg/kg s.c.
Method: as §1

rat cholera model = experiment: Cholera-induced intestinal fluid secretion (rat cholera model); format: in vivo
Method: The rat cholera model was used to determine the effect of the test compounds on intestinal fluid movements. (H. I. Jacoby and C. H. Marshall, Antagonism of Cholera Enterotoxin by Anti-inflammatory Agents in the Rat. Nature, 235, 163-165, 1972). Female Charles River rats weighing 85-100 grams and having free access to water were fasted for 24 hours prior to each experiment. After a midline incision was made under ether anesthesia, a 20-cm ligated small intestinal segment was constructed starting 3 cm distal to the ligament of Treitz. Each segment was injected, using a 27 gauge 1/2-inch needle, with crude cholera toxin in a 0.9% saline solution. Thirty minutes before cholera toxin was injected, test compounds were administered subcutaneously to groups of four rats at doses of 10 and 20 mg/kg. Four hours after injection of toxin, the animals were sacrificed and the fluid content and exact length of the intestinal segments were measured. Fluid secretion was expressed in ml/cm of intestine.
The ID50 's of these compounds were estimated using data obtained from at least two doses and at least two experiments by the method of maximum likelihood. R. A. Fischer. "Principles of Statistical Estimation." in Statistical Methods for Research Workers, 14th ed. Hafner: New York; pp. 301-339. […]

Q: `Cc1cc(O)cc(C)c1C[C@H](N)C(=O)N[C@H](C)C(=O)NCCCc1ccccc1` [Example 5, 2,6-dimethyltyrosyl-N-(3-phenylpropyl)-D-alaninamide, hydrochloride] was tested. Which ED50 (mice [1]; po, p.o., read-out: Hot Plate (ED50) p.o.) did it give?
A: 52 mg/kg

Q: And the ED50 (mice [1]; sc, s.c., read-out: Hot Plate (ED50) s.c.)?
A: 9 mg/kg

Q: And the “activity in hot plate test of combined tests” value (mice [1])?
A: active

Q: What about the “SHR Blood Pressure, dose printed (active at)” value ([2]; Table 2, i.v.) of the same molecule?
A: 1 mg/kg

Q: What about the “Antihypertensive Properties, Result” value [2] of the same molecule?
A: Active

Q: And the ED50 (mice [3]; po, Table 2, p.o., read-out: Writhing (ED50) p.o.)?
A: 0.5 mg/kg

Q: And the ED50 (mice [3]; sc, Table 2, s.c., read-out: Writhing (ED50) s.c.)?
A: 0.5 mg/kg

Q: And the “Writhing Mouse Oral (ED50)” value (mice [3]; hydrochloride)?
A: 0.53 mg/kg

Q: And the “Writhing Mouse Subc. (ED50)” value (mice [3]; hydrochloride)?
A: 0.52 mg/kg

Q: And the “activity in writhing test relative to the prior art, oral” value (mice [3]; administered orally, more active than prior art)?
A: 6 times

Q: What about the “potency in writhing test relative to the prior art, subcutaneous” value (mice [3]; subcutaneous administration) of the same molecule?
A: approximately equipotent

Q: What about the ED50 (mice [4]; po, p.o., read-out: Tail Flick (ED50) p.o.) of the same molecule?
A: 115 mg/kg

Q: What about the ED50 (mice [4]; sc, s.c., read-out: Tail Flick (ED50) s.c.) of the same molecule?
A: 35 mg/kg

Q: What about the “activity in tail flick test” value (mice [4]) of the same molecule?
A: active

Q: And the ED50 (rat cholera model; Rattus norvegicus, sc, read-out: Rat Cholera Test (ED50))?
A: 6.1 mg/kg

Q: Which “Hot Plate, activity at stated dose s.c.” value (mice [1]; 50 mg/kg s.c.) does the source give for “tyrosine-D-alanine-phenylpropylamide [Prior Art, reference compound]” here?
A: Inactive

Q: What about the “Hot Plate, activity at stated dose p.o.” value (mice [1]; 100 mg/kg p.o.) of the same molecule?
A: Inactive

Q: And the “activity in hot plate test of combined tests” value (mice [1])?
A: not active

Q: What about the “SHR Blood Pressure, activity at stated dose” value ([2]; Table 2, 10 mg/kg i.v.) of the same molecule?
A: Active

Q: And the “Antihypertensive Properties, Result” value [2]?
A: Active

Q: What about the “Writhing Mouse Oral (ED50)” value (mice [3]) of the same molecule?
A: 0.58 mg/kg

Q: And the “Writhing Mouse Subc. (ED50)” value (mice [3])?
A: 3.10 mg/kg

Q: And the “Writhing (ED50) s.c.” value (mice [3]; Table 2, s.c.)?
A: 0.6 mg/kg

Q: What about the “Tail Flick, activity at stated dose s.c.” value (mice [4]; 50 mg/kg s.c.) of the same molecule?
A: Inactive

Q: And the “Tail Flick, activity at stated dose p.o.” value (mice [4]; 100 mg/kg p.o.)?
A: Inactive

Q: What about the “activity in tail flick test” value (mice [4]) of the same molecule?
A: not active

Q: And the “Rat Cholera Test, activity at stated dose” value (rat cholera model; 20 mg/kg s.c.)?
A: Inactive
